We go through 16 compounds from ChEMBL document CHEMBL1909046, “DrugMatrix in vitro pharmacology data”.

Assay [1] in a line: DRUGMATRIX: Atrial Natriuretic Factor (ANF) radioligand binding (ligand: [125I] ANF (rat)). As to conditions: Not Active = under 50% inhibition at 10 µM. In kind it is cell membranes, Cavia porcellus, Dunkin-Hartley, Adrenal gland, Membrane.
In assay [2] the target is T1, Vasoactive intestinal polypeptide receptor 1 (Homo sapiens, UniProt P32241). Further: in other assays of this panel Not Active means under 50% inhibition at 10 µM.
T1 sequence (P32241 whole entry): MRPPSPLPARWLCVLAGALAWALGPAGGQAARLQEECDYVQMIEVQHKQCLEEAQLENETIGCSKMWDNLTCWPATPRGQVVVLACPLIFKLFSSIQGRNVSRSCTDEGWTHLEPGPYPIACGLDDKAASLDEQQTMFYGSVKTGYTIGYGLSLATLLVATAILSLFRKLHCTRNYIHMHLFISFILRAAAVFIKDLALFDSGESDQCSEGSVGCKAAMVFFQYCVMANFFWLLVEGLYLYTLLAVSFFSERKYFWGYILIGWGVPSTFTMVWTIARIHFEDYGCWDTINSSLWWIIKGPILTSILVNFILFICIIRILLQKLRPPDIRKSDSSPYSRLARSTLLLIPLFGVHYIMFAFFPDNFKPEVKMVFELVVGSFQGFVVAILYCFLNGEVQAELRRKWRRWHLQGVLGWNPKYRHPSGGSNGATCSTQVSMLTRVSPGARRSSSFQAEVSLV
In kind it is cell membranes, Membrane. As to conditions: ht-29.

The target of assay [3] is Sodium-dependent dopamine transporter (Homo sapiens, UniProt Q01959). The assay is described as follows: DRUGMATRIX: Dopamine Transporter radioligand binding (ligand: [125I] RTI-55). In kind it is cell membranes, CHO-K1, Membrane. As to conditions: Not Active = under 50% inhibition at 10 µM.
Chain of Sodium-dependent dopamine transporter (Q01959 whole entry): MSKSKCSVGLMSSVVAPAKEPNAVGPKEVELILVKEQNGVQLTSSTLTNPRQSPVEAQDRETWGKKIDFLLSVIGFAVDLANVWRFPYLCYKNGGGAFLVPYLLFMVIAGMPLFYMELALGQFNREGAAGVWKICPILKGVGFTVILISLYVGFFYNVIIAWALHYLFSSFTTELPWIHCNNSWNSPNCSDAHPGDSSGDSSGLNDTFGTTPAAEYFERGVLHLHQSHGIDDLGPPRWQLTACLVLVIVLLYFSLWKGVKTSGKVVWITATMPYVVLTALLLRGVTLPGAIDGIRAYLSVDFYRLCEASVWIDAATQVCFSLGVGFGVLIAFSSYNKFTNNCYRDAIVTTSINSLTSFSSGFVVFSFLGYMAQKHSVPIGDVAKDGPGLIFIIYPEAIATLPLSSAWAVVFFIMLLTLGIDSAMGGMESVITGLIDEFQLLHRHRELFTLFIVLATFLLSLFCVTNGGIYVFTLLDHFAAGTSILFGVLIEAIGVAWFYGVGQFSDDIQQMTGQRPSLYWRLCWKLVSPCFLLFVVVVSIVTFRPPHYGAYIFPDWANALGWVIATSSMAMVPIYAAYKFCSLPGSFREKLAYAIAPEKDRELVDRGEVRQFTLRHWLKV
Assay [4] deals with T2, Neuropeptide Y receptor type 1 (Homo sapiens, UniProt P25929).
T2 sequence (P25929 whole entry): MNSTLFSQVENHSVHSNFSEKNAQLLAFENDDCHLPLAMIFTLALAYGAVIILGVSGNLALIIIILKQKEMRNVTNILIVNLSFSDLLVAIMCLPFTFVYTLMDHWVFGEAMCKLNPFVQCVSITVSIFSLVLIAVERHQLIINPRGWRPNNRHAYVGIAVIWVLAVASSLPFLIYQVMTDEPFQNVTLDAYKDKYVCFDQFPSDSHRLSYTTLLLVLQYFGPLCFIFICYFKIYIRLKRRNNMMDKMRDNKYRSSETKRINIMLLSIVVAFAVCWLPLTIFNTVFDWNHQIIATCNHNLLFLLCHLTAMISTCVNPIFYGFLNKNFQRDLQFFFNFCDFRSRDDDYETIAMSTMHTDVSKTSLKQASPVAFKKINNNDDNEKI
In kind it is cell membranes, Membrane. As to conditions: sk-n-mc.

In assay [5] the target is cGMP-specific 3',5'-cyclic phosphodiesterase (Homo sapiens, UniProt O76074). Nature of the assay: DRUGMATRIX: Phosphodiesterase PDE5 enzyme inhibition (substrate: [3H]cGMP + cGMP). In kind it is tissue-based. As to conditions: platelet; Not Active = under 50% inhibition at 10 µM.
The target of assay [6] is Platelet-activating factor receptor (Homo sapiens, UniProt P25105). In kind it is tissue-based. Further: in other assays of this panel Not Active means under 50% inhibition at 10 µM.
Chain of Platelet-activating factor receptor (P25105 whole entry): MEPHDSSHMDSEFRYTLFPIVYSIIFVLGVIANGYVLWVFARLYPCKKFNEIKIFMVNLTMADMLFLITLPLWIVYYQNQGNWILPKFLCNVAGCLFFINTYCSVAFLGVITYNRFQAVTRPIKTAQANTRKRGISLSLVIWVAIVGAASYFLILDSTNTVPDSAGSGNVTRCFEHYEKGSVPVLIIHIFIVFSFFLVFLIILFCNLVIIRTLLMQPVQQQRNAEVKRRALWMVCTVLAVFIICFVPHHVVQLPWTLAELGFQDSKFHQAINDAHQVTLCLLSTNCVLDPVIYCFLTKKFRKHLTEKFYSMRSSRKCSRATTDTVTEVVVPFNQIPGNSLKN
Assay [7] addresses Epidermal growth factor receptor (Homo sapiens, UniProt P00533). Nature of the assay: DRUGMATRIX: Protein Tyrosine Kinase, EGF Receptor enzyme inhibition (substrate: Poly(Glu:Tyr)). In kind it is cell-based, Insect cells. The settings on record: Not Active = under 50% inhibition at 10 µM.
For assay [8], the target named is T3, Glucocorticoid receptor (Homo sapiens, UniProt P04150). Further: in other assays of this panel Not Active means under 50% inhibition at 10 µM.
T3 sequence (P04150 whole entry): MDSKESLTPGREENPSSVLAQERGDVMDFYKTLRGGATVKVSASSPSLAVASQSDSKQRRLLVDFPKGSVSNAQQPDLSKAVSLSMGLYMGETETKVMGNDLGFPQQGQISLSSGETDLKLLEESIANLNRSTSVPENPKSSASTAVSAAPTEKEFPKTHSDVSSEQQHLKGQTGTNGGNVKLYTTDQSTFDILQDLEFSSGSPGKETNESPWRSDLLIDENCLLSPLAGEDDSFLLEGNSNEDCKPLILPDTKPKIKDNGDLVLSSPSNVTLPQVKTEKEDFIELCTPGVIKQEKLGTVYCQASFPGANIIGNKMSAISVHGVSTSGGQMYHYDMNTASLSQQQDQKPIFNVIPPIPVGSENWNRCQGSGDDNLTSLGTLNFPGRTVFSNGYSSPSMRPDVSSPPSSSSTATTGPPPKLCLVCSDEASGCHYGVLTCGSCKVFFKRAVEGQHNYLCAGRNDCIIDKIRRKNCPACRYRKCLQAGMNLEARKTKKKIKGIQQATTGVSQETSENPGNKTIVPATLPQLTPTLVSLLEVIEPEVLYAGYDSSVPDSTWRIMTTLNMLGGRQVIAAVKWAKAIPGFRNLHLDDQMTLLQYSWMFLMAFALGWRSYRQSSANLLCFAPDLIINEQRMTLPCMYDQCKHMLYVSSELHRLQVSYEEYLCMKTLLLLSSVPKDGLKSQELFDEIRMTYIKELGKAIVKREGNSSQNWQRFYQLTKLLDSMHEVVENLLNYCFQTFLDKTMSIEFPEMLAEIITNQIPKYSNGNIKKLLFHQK
As to conditions: hela s3.

Chain of Epidermal growth factor receptor (P00533 whole entry): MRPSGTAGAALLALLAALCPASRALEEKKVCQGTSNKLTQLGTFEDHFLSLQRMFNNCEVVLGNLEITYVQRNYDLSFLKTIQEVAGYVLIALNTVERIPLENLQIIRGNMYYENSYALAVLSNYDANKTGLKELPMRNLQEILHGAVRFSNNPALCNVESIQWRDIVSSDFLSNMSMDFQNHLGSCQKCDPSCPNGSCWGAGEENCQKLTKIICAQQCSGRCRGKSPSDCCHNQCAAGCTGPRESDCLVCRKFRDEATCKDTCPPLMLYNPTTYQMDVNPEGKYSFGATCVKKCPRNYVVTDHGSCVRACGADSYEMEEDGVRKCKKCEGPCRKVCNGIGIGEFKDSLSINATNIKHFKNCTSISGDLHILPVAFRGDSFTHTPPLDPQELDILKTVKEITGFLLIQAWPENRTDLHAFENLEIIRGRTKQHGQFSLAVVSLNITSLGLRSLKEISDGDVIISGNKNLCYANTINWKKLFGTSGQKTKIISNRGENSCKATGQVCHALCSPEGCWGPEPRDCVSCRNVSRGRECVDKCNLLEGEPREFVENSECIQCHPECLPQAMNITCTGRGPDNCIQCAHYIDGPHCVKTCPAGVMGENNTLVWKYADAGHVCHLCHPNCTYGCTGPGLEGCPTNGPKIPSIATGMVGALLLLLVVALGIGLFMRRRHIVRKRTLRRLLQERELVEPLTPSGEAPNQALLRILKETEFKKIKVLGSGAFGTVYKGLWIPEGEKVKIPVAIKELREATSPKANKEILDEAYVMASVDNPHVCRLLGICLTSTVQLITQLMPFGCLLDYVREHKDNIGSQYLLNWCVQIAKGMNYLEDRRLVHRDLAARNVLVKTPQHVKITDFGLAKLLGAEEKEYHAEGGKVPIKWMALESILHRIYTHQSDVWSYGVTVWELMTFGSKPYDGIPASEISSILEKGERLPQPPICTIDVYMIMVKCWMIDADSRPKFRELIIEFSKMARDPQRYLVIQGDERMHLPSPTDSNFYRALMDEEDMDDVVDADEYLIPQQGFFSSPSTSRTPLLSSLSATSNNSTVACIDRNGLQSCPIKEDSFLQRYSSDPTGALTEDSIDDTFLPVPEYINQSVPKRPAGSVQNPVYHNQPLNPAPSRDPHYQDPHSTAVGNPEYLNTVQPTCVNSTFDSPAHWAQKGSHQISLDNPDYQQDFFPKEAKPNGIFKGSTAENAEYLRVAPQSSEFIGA

On to `CC(C)[C@H]1C(=O)N2CCC[C@H]2[C@]2(O)O[C@](NC(=O)[C@@H]3C=C4c5cccc6[nH]cc(c56)C[C@H]4N(C)C3)(C(C)C)C(=O)N12` [ERGOCORNINE], for which the IC50 entry in assay [1], in assay [2], in assay [3] (cho-k1), in assay [4], in assay [5] and in assay [6] was “Not Active” throughout. The concentration for half-maximal inhibition (IC50) result in assay [7] (insect cells) and in assay [8] was “Not Active” each time. Besides, the Ki entry in assay [1] was “Not Active”.
As to `OC(Cn1cncn1)(Cn1cncn1)c1ccc(F)cc1F` [FLUCONAZOLE], the IC50 entry in assay [1], in assay [2], in assay [3] (cho-k1), in assay [4], in assay [5] and in assay [6] was “Not Active” in each case. The half-inhibitory concentration (IC50) result in assay [7] (insect cells) and in assay [8] was “Not Active” each time. In assay [1], the Ki entry was “Not Active”.
Regarding `N=C(N)NCCN1CCCCCCC1` [GUANETHIDINE], the concentration for half-maximal inhibition (IC50) result in assay [1], in assay [2], in assay [3] (cho-k1), in assay [4], in assay [5] and in assay [6] was “Not Active” each time. The 50% inhibitory concentration (IC50) result in assay [7] (insect cells) and in assay [8] was “Not Active” throughout. The Ki entry in assay [1] is listed as “Not Active”.
On to `O=c1[nH]c(=O)n([C@H]2C[C@H](O)[C@@H](CO)O2)cc1I` [IDOXURIDINE], for which the half-inhibitory concentration (IC50) entry in assay [1], in assay [2], in assay [3] (cho-k1), in assay [4], in assay [5] and in assay [6] was “Not Active” throughout. The IC50 entry in assay [7] (insect cells) and in assay [8] was “Not Active” in each case. Further, the Ki entry in assay [1] is listed as “Not Active”.
As for `Nc1nc(N)nc(-c2cc(Cl)ccc2Cl)n1.O=C(O)/C=C\C(=O)O` [IRSOGLADINE MALEATE], the IC50 result in assay [1], in assay [2], in assay [3] (cho-k1), in assay [4], in assay [5] and in assay [6] was “Not Active” in each case. The half-inhibitory concentration (IC50) result in assay [7] (insect cells) and in assay [8] was “Not Active” in each case. Besides, the inhibition constant Ki result in assay [1] is listed as “Not Active”.
Turning to `CCCCc1nc(Cl)c(CO)n1Cc1ccc(-c2ccccc2-c2nnn[nH]2)cc1` [LOSARTAN], the IC50 entry in assay [1], in assay [2], in assay [3] (cho-k1), in assay [4], in assay [5] and in assay [6] was “Not Active” in each case. In addition, the IC50 entry in assay [7] (insect cells) and in assay [8] was “Not Active” throughout. The inhibition constant Ki entry in assay [1] is “Not Active”.
With `Cc1ccccc1N1C(=O)c2cc(S(N)(=O)=O)c(Cl)cc2NC1C` (stereo not given) [METOLAZONE], the half-maximal inhibitory concentration (IC50) result in assay [1], in assay [2], in assay [3] (cho-k1), in assay [4], in assay [5] and in assay [6] was “Not Active” throughout. Besides, the IC50 result in assay [7] (insect cells) and in assay [8] was “Not Active” throughout. The inhibition constant Ki entry in assay [1] is listed as “Not Active”.
As for `COCCc1ccc(OCC(O)CNC(C)C)cc1` (stereo not given) [METOPROLOL], the half-maximal inhibitory concentration (IC50) entry in assay [1], in assay [2], in assay [3] (cho-k1), in assay [4], in assay [5] and in assay [6] was “Not Active” throughout. Also, the IC50 entry in assay [7] (insect cells) and in assay [8] was “Not Active” each time. Also, the inhibition constant Ki result in assay [1] is on record as “Not Active”.
On to `CCn1cc(C(=O)O)c(=O)c2cc(F)c(N3CCNCC3)cc21` [NORFLOXACIN], for which the IC50 entry in assay [1], in assay [2], in assay [3] (cho-k1), in assay [4], in assay [5] and in assay [6] was “Not Active” throughout. For the same compound, the IC50 result in assay [7] (insect cells) and in assay [8] was “Not Active” in each case. Also, in assay [1], the inhibitory constant (Ki) result is “Not Active”.
With `NC1=NC(=O)C(c2ccccc2)O1` (stereo not given) [PEMOLINE], the 50% inhibitory concentration (IC50) result in assay [1] was “Not Active”; in assay [2], “Not Active”; in assay [3] (read-out: IC50), 521 nM; in assay [4], “Not Active”; in assay [5] it was “Not Active”; in assay [6] it was “Not Active”. Further, the IC50 entry in assay [7] (insect cells) and in assay [8] was “Not Active” each time. Moreover, the Ki result in assay [1] was “Not Active”; in assay [3] (read-out: Ki) it was 414 nM.
In the case of `Nc1nc2c(ncn2CCC(CO)CO)c(=O)[nH]1` [PENCICLOVIR], the IC50 entry in assay [1], in assay [2], in assay [3] (cho-k1), in assay [4], in assay [5] and in assay [6] was “Not Active” each time. For the same compound, the IC50 result in assay [7] (insect cells) and in assay [8] was “Not Active” in each case. Further, the inhibition constant (Ki) entry in assay [1] is listed as “Not Active”.
As to `C=C(C)C1(O)OC(=O)C=C1OC` (stereo not given) [PENICILLIC ACID], the IC50 result in assay [1], in assay [2], in assay [3] (cho-k1), in assay [4], in assay [5] and in assay [6] was “Not Active” in each case. For the same compound, the concentration for half-maximal inhibition (IC50) entry in assay [7] (insect cells) and in assay [8] was “Not Active” in each case. Moreover, the inhibitory constant (Ki) entry in assay [1] is “Not Active”.
`CC1(C)S[C@@H]2[C@H](NC(=O)Cc3ccccc3)C(=O)N2[C@H]1C(=O)O` [PENICILLIN G]: the concentration for half-maximal inhibition (IC50) result in assay [1], in assay [2], in assay [3] (cho-k1), in assay [4], in assay [5] and in assay [6] was “Not Active” throughout. For the same compound, the concentration for half-maximal inhibition (IC50) result in assay [7] (insect cells) and in assay [8] was “Not Active” in each case. In addition, in assay [1], the Ki entry is recorded as “Not Active”.
For `CCCN1C[C@H](CSC)C[C@@H]2c3cccc4[nH]cc(c34)C[C@H]21` [PERGOLIDE], the half-maximal inhibitory concentration (IC50) result in assay [1], in assay [2], in assay [3] (cho-k1), in assay [4], in assay [5] and in assay [6] was “Not Active” each time. The concentration for half-maximal inhibition (IC50) result in assay [7] (insect cells) and in assay [8] was “Not Active” throughout. In addition, the inhibition constant (Ki) entry in assay [1] was “Not Active”.
Regarding `C1CCC(C(CC2CCCCN2)C2CCCCC2)CC1` (stereo not given) [PERHEXILINE], the half-maximal inhibitory concentration (IC50) result in assay [1], in assay [2], in assay [3] (cho-k1), in assay [4], in assay [5] and in assay [6] was “Not Active” each time. For the same compound, the values for the 50% inhibitory concentration (IC50) in assay [7] (read-out: IC50) and in assay [8] were 1490 nM and “Not Active”, respectively. The inhibitory constant (Ki) result in assay [1] was “Not Active”.
Take `CCOc1ccc(NC(C)=O)cc1` [PHENACETIN]: the IC50 result in assay [1], in assay [2], in assay [3] (cho-k1), in assay [4], in assay [5] and in assay [6] was “Not Active” throughout. Also, the half-inhibitory concentration (IC50) result in assay [7] (insect cells) and in assay [8] was “Not Active” each time. For the same compound, the inhibition constant Ki entry in assay [1] is listed as “Not Active”.
